Reference: US20060106106A1, “Beta-hydroxyphenylalkylamines and their use for treating glaucoma” (priority 2002, published 2006)
Counter-ions that a name gives are not always drawn.

Key:
[1] = target: T1, 5-HT2A (Rattus norvegicus, UniProt P14842); experiment: 5-HT2 Functional Assay: Phosphoinositide (PI) Turnover Assay in A7r5 cells; format: cell-based; settings: for Emax: A7r5 cells, relative to 5-HT (set at 100%)
T1 construct: [^3H]myo-inositol-labeled A7r5 rat vascular smooth muscle cells; endogenous in cells; host or cells: A7r5 rat vascular smooth muscle cells
T1 sequence (P14842 whole entry): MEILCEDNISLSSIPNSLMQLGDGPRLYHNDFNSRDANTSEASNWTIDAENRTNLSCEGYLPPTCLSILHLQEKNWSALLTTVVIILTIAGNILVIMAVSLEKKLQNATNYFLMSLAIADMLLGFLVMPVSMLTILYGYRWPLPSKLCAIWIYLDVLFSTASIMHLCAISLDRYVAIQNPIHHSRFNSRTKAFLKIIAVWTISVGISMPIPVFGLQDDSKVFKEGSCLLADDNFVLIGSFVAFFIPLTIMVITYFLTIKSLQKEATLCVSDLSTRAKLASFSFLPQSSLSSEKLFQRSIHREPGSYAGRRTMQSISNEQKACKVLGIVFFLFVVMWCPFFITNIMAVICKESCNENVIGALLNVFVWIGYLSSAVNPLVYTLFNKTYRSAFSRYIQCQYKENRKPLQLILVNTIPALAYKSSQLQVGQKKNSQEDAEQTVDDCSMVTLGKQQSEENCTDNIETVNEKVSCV
Method: 5-HT2 Functional Assay: Phosphoinositide (PI) Turnover Assay
The relative agonist activity of serotonergic compounds at the 5-HT2 receptor can be determined in vitro using the ability of the compounds to stimulate the production of [^3H]inositol phosphates in [^3H]myo-inositol-labeled A7r5 rat vascular smooth muscle cells by their ability to activate the enzyme phospholipase C. These cells are grown in culture plates, maintained in a humidified atmosphere of 5% CO2 and 95% air and fed semi-weekly with Dulbecco's modified Eagle medium (DMEM) containing 4.5 g/L glucose and supplemented with 2 mM glutamine, 10 μg/ml gentamicin, and 10% fetal bovine serum. For the purpose of conducting the phosphoinositide (PI) turnover experiments, the A7r5 cells are cultured in 24-well plates as previously [J. Pharmacol. Expt. Ther. 286, 411 (1998)]. Confluent cells are exposed for 24-30 hrs to 1.5 μCi [^3H]-myo-inositol (18.3 Ci/mmol) in 0.5 ml of serum-free medium. Cells are then rinsed once with DMEM/F-12 containing 10 mM LiCl prior to incubation with the test agent (or solvent as the control) in 1.0 mL of the same medium for 1 hr at 37° C., after which the medium is aspirated and 1 ml of cold 0.1 M formic acid added to stop the reaction. The chromatographic separation of [^3H]-inositol phosphates ([^3H]-IPs) on an AG-1-X8 column is performed as previously described [J. Pharmacol. Expt. Ther. 286, 411 (1998)] with sequential washes with H2O and 50 mM ammonium formate, followed by elution of the total [^3H]-IPs fraction with 1.2 M ammonium formate containing 0.1 M formic acid. The eluate (4 mL) is collected, mixed with 15 ml scintillation fluid, and the total [^3H]-IPs determined by scintillation counting on a beta-counter. Concentration-response data are analyzed by the sigmoidal fit function of the Origin Scientific Graphics software (Microcal Software, Northampton, Mass.) to determine agonist potency (EC50 value) and efficacy (Emax). Serotonin (5-HT) is used as a positive control (standard) agonist compound and the efficacy of test compounds is compared to that of 5-HT (set at 100%).

[2] = target: T1, 5-HT2A; experiment: 5-HT2 Functional Assay: [Ca2+]i Mobilization (FLIPR) in A7r5 cells; format: cell-based; settings: for Emax: A7r5 cells, FLIPR, percentage of maximum 5-HT-induced response, read-out: 5-HT2A % Emax (Ca+2 Assay)
Method: 5-HT2 Functional Assay: [Ca^2+]i Mobilization
The receptor-mediated mobilization on intracellular calcium ([Ca^2+]i) was studied using the Fluorescence Imaging Plate Reader (FLIPR) instrument. Rat vascular smooth muscle cells, A7r5, were grown in a normal media of DMEM/10% FBS and 10 μg/mL gentamycin. Confluent cell monolayers were trypsinized, pelleted, and re-suspended in normal media. Cells were seeded in a 50 μL volume at a density of 20,000 cells/well in a black wall, 96-well tissue culture plate and grown for 2 days.
On the day of the experiment, one vial of FLIPR Calcium Assay Kit dye was re-suspended in 50 mL of a FLIPR buffer consisting of Hank's Balanced Salt Solution (HBSS), 20 mM HEPES, and 2.5 mM probenecid, pH 7.4. Cells were loaded with the calcium-sensitive dye by addition of an equal volume (50 μL) to each well of the 96-well plate and incubated with dye for 1 h at 23° C.
Compounds were diluted 1:50 in 20% DMSO/20% Ethanol. For “hit” screening, compounds were further diluted 1:10 in FLIPR buffer and tested at a final concentration of 10 μM.
The compound plate and cell plate were placed in the FLIPR instrument. At the beginning of an experimental run, a signal test was performed to check the basal fluorescence signal from the dye-loaded cells and the uniformity of the signal across the plate. The basal fluorescence was adjusted between 8000-12000 counts by modifying the exposure time, the camera F-stop, or the laser power. Instrument settings for a typical assay were the following: laser power 0.3-0.6 W, camera F-stop F/2, and exposure time 0.4 sec. An aliquot (25 μL) of the test compound was added to the existing 100 μL dye-loaded cells at a dispensing speed of 50 μL/sec. Fluorescence data were collected in real-time at 1.0 sec intervals for the first 60 secs and at 6.0 sec intervals for an additional 120 secs. Responses were measured as peak fluorescence intensity minus basal and where appropriate were expressed as a percentage of a maximum 5-HT-induced response.

Row | Structure (SMILES) | EC50 [1] [nM] | Emax [1] [%] | EC50 [2] [nM] | Emax [2] [%] | melting point [°C]
1 | COc1cc([C@H](OC)[C@@H](C)N)c(OC)cc1Br [Compound 13, (+)-erythro-(1S,2R)-1-Methoxy-1-(4-bromo-2,5-dimethoxyphenyl)-2-aminopropane Oxalate] | 4610 | 117 | 5040 | 49 | –
2 | COc1cc([C@@H](O)[C@@H](C)N)c(OC)cc1Br [Compound 11, (−)-threo-(1R,2R)-1-Hydroxy-1-(4-bromo-2,5-dimethoxyphenyl)-2-aminopropane Hydrochloride] | 1130 | 102 | 96.9 | 54 | –
3 | CC[C@H](N)[C@H](O)c1cc(OC)c(Br)cc1OC (as salt: oxalate) [Compound 7, (−)-erythro-(1R,2S)-1-Hydroxy-1-(4-bromo-2,5-dimethoxyphenyl)-2-aminobutane Oxalate] | – | – | – | – | 203 to 205
4 | COc1cc([C@@H](O)[C@H](C)N)c(OC)cc1Br [Compound 9, (−)-erythro-(1R,2S)-1-Hydroxy-1-(4-bromo-2,5-dimethoxyphenyl)-2-aminopropane Hydro-chloride] | 1180 | 68 | 84 | 22 | –
5 | COc1cc([C@H](O)[C@@H](C)N)c(OC)cc1Br [Compound 8, (+)-erythro-(1S,2R)-1-Hydroxy-1-(4-bromo-2,5-dimethoxyphenyl)-2-aminopropane Hydrochloride] | 8000 | 57 | – | 20 | –
6 | COc1ccc(OC)c(C(O)C(C)N)c1 (stereo not shown) [Compound 1, reference compound] | – | – | – | 9 | –
7 | COc1cc([C@H](O)[C@@H](C)N)c(OC)cc1Br (as salt: hydrochloride) [Compound 8, (+)-erythro-(1S,2R)-1-Hydroxy-1-(4-bromo-2,5-dimethoxyphenyl)-2-aminopropane Hydrochloride] | – | – | – | – | 194 to 196
8 | COc1cc([C@@H](OC)[C@H](C)N)c(OC)cc1Br [Compound 12, (−)-erythro-(1R,2S)-1-Methoxy-1-(4-bromo-2,5-dimethoxyphenyl)-2-aminopropane Oxalate] | 1080 | 100 | 1330 | 54 | –
9 | COc1cc(C(OC)C(C)N)c(OC)cc1Br (single isomer, unassigned; (+)) [Compound 15] | – | – | 1410 | 31 | –
10 | COc1cc(C(O)C(C)N)c(OC)cc1Br (single isomer, unassigned; (+)) [Compound 10, Hydrochloride] | – | 47 | – | 16 | –
11 | COc1cc([C@@H](OC)[C@@H](C)N)c(OC)cc1Br [Compound 14, (−)-thero-(1R,2R)-1-Methoxy-1-(4-bromo-2,5-dimethoxyphenyl)-2-aminopropane Oxalate] | 42.4 | 111 | 126 | 93 | –
12 | COc1cc([C@@H](OC)[C@H](C)N)c(OC)cc1Br (as salt: oxalate) [Compound 12, (−)-erythro-(1R,2S)-1-Methoxy-1-(4-bromo-2,5-dimethoxyphenyl)-2-aminopropane Oxalate] | – | – | – | – | 186 to 188
13 | COc1cc([C@@H](O)[C@@H](C)N)c(OC)cc1Br (as salt: hydrochloride) [Compound 11, (−)-threo-(1R,2R)-1-Hydroxy-1-(4-bromo-2,5-dimethoxyphenyl)-2-aminopropane Hydrochloride] | – | – | – | – | 214 to 215
14 | COc1cc(C(O)C(C)N)c(OC)cc1Br (single isomer, unassigned; (+)) (as salt: hydrochloride) [Compound 10] | – | – | – | – | 213 to 214
15 | COc1cc(C(O)CN)c(OC)cc1CCCc1ccccc1 (racemic) [Compound 5, (±)1-Hydroxy-1-[4-(3-phenylpropyl)-2,5-dimethoxyphenyl]-2-aminoethane Hydrochloride, reference compound] | – | – | – | 3.1 | –
16 | CC[C@H](N)[C@H](O)c1cc(OC)c(Br)cc1OC [Compound 7, (−)-erythro-(1R,2S)-1-Hydroxy-1-(4-bromo-2,5-dimethoxyphenyl)-2-aminobutane Oxalate, reference compound] | – | – | – | 4.8 | –
17 | COc1cc(C(O)CN)c(OC)cc1Br (stereo not shown) [Compound 6, reference compound] | – | – | – | 7.8 | –
18 | COc1cc(C(O)CN)c(OC)cc1CCCc1ccccc1 (racemic) (as salt: hydrochloride) [Compound 5, (±)1-Hydroxy-1-[4-(3-phenylpropyl)-2,5-dimethoxyphenyl]-2-aminoethane Hydrochloride] | – | – | – | – | 174 to 176
